Assay: Body weight of mice in the HepG2 xenograft model
Format: in vivo, BALB/c nude mice
Details: 3.0 and 6.0 mg/kg ip daily, versus solvent control group
Method: To further evaluate the in vivo antitumor efficacy of these complexes, 3 was selected to inhibit tumor growth in a HepG2 xenografts model. The mice were randomized into control group, 3-treated groups and positive control group (n = 6). Once the tumor had grown to an average volume of about 100 mm^3, two group of nude mice were injected intraperitoneally (ip) of 3 at a high dose (6.0 mg/kg) and a low (3.0 mg/kg) dose daily for 20 days, respectively. Cisplatin was used as positive control injected at 2.0 mg/kg every two days, while control group received solvents only.
BALB/c nude mice (male, 17–20 g, 5–6 weeks old) were supplied by Guangxi Medical University Laboratory Animal Centre (Guangxi, China, approval no. SCXK 2014–0002 and SYXK 2014–0003). All of the experimental procedures were carried out according to the NIH Guidelines for the Care and Use of Laboratory Animals. Animal experiments were approved by the Animal Care and Use Committee of Guangxi Medical University. Animal were housed at IVC system (individual ventilated caging) with conditions of constant photoperiod (12 h light/12 h dark at 25−28 °C and 45−65% humidity). The xenograft tumor model was established in the same way as we reported before. […]
The tumor volumes and body weight were measured every 3 days, and tumor size was calculated as volume = (w^2l)/2, where w is the width and l is the length in mm of tumor[70]. […]

In the case of [Zn(OD)2(H2O)2] (ClO4)2 [Complex 3], the “in vivo toxic effect (loss in body weight)” value is reported as “no significant loss in body weight”.

Reference: publication PMC5402304, “Oxoaporphine Metal Complexes (Co^II, Ni^II, Zn^II) with High Antitumor Activity by Inducing Mitochondria-Mediated Apoptosis and S-phase Arrest in HepG2” (Scientific Reports, 2017)
